Key:
[1] = tested on: ET receptors, particularly an ETA receptor; conditions: competitively inhibits binding to ET receptors; cited from earlier work
[2] = hygroscopicity of crystals (FIGS. 10 to 12); type: physicochemical; conditions: for moisture absorbed / moisture absorbed, corresponding moles of water: extent of moisture absorption with increase of humidity; for humidity above which moisture is absorbed: humidity exceeded before moisture absorption
Source text: Also, FIGS. 10 to 12 show the hygroscopicity of the three kinds of novel crystals of the potassium salt of Compound A of the invention.

[3] = heat stability of crystals; type: physicochemical; conditions: high melting point
[4] = preservation stability in a reagent bottle; type: physicochemical; conditions: normal temperature, atmospheric pressure
Source text: Additionally, the α-type crystal, β-type crystal and γ-type crystal of the potassium salt of Compound A of the invention are morphologically pure. […] Moreover, since it is hardly electrified and is excellent in fluidity, it has advantages such that works are easy in adjusting solid formulations such as powders, granules, tablets, and capsules.

[5] = listed as γ-type crystal of the potassium salt of Compound A
[6] = listed as β-type crystal of the potassium salt of Compound A
[7] = listed as α-type crystal of the potassium salt of Compound A

In the case of `COc1ccccc1Oc1c(NS(=O)(=O)/C=C/c2ccccc2)nc(-c2ncccn2)nc1OC.[K]` [potassium salt of Compound A], the “affinity with ET receptors” value [1] is listed as “high affinity”.
In the case of `COc1ccccc1Oc1c(NS(=O)(=O)/C=C/c2ccccc2)nc(-c2ncccn2)nc1OC.[K]` [γ-type crystal], the moisture absorbed [2, 5] is reported as “about 1%”, the “moisture absorbed, corresponding moles of water” value (“moisture absorbed … of water” below) [2, 5] is reported as 0.3 moles of water and the “heat stability (in words)” value [3] is reported as “excellent in heat stability”.
For `COc1ccccc1Oc1c(NS(=O)(=O)/C=C/c2ccccc2)nc(-c2ncccn2)nc1OC.[K]` [β-type crystal], the moisture absorbed [2, 6] was “about 4%”, the “moisture absorbed … of water” value [2, 6] was 1.2 moles of water and the “humidity above which moisture is absorbed” value [2, 6] was “exceeded 45%”. For the same molecule, the “heat stability (in words)” value [3] was “excellent in heat stability”.
In the case of `COc1ccccc1Oc1c(NS(=O)(=O)/C=C/c2ccccc2)nc(-c2ncccn2)nc1OC.[K]` [α-type crystal], the moisture absorbed [2, 7] is reported as “about 6%”, the “moisture absorbed … of water” value [2, 7] is reported as 1.8 moles of water and the “humidity above which moisture is absorbed” value [2, 7] is reported as “exceeded 65%”. For the same molecule, the “stable in the preservation state” value [4] was “over 2 years”.

From patent US7232904B2, “Crystal of arylethenesulfonamide derivative and preparation process thereof” (Astellas Pharma Inc., priority 2001, dated 2007)
